In US11331290B2, “Niclosamide for the treatment of cancer metastasis” (Max-Delbrück-Centrum für Molekulare Medizin in der …, priority 2011, dated 2022):

Key:
Format in all cases: cell-based, human
[1] = test system: HCT116-S100A4 cells; assay: Soft agar colony formation assay; details: 1 μM, 7 days
Description: (§1) Analysis of anchorage-independent cell proliferation was achieved by soft agar colony formation assay. A bottom layer containing 0.5% w/v agarose, RPMI-1640 medium, 10% FBS and 1 μM niclosamide or the respective amount of DMSO was added to a 6 cm Ø dish and incubated at room temperature under sterile conditions for 10 minutes. Onto the solidified bottom layer a top layer was added containing 8×10^3 cells, 0.33% w/v agarose, RPMI-1640 medium, 10% FBS and 1 μM niclosamide or the respective amount of DMSO. Cells were seeded as single cells into the soft agar and incubated in a humidified incubator at 37° C. and 5% CO2 for 7 days. Colony formation was visualized by 10× magnification for an overview and 40× magnification for single colonies in the Leica DM IL light microscope (Leica Microsystems). Colony quantification was achieved by counting cell colonies of more than 4 cells in 10 squares of […]. Colony formation experiments were repeated twice, each in triplicates.
(§2) (A) Cell migration of HCT116-vector and HCT116-S100A4 cells exposed to niclosamide treatment. Cells were treated with 1 μM niclosamide for 24 hours and migration rates were measured with Boyden chamber assay. (B) Cell invasion of HCT116-vector and HCT116-S100A4 cells exposed to niclosamide treatment. Cells were treated with 1 μM niclosamide for 24 hours and cell invasion was determined by Boyden chamber assay. (C) Directed migration of HCT116-vector and HCT116-S100A4 cells exposed to niclosamide treatment analyzed by wound healing assay. Wounds of 300 μM width were set in a 60% confluent monolayer of HCT116-vector or HCT116-S100A4 cells on day 1. Cells were treated daily with 1 μM niclosamide for 4 days. Microphotographs of day 4 are presented here with black lines indicating margins of entered wound of day 1; scale bar represents 200 μM. Data represents three independent experiments. (D) Adhesive cell proliferation of HCT116-vector and HCT116-S100A4 cells exposed to niclosamide treatment. Cells were treated daily with 1 μM niclosamide and cell viability was determined with MTT assay. (E) Anchorage-independent cell growth of HCT116-vector and HCT116-S100A4 cells exposed to niclosamide treatment. Cells were plated as single cells into 0.33% (w/v) agarose and treatment (solvent or 1 μM niclosamide) containing medium. After 7 days colonies were visualized by light microscopy at 10× (overview) and 40× (single colony) magnification. (F) Quantification of colonies formed. Number of colonies (of more than 4 cells) was counted and normalized to solvent-treated HCT116-vector cells. Differences of niclosamide vs. solvent-treated cells were analyzed by Student's t test. Data represent mean±SE (n>2) of at least two independent experiments each performed in at least duplicate.

[2] = test system: HCT116-vector cells; assay: Soft agar colony formation assay; details: 1 μM, 7 days
Description: as §1, §2

[3] = test system: HAB-92 wt cells; assay: Boyden chamber transwell migration assay; details: 1 μM, 24 h, statistically not significant
Description: HCT116, SW620, LS174T, SW480 and DLD-1 cells were used in cell migration and invasion analysis performed with Boyden chamber assay. 400 μL containing 2.5×10^5 cells were seeded into each transwell chamber with filter membranes of 12.0 μm pore size (Millipore, Schwalbach, Germany). For invasion filter membranes were coated with 50 μL Matrigel (diluted 1:3 in RPMI-1640; BD Biosciences) 10 minutes before cells were seeded. Fresh medium (600 μL) were added to the bottom chamber and cells were allowed to attach to the insets for 15 hours. Both chambers were treated with 1 μM niclosamide or the respective amount of DMSO and incubated at 37° C. and 5% CO2 in a humidified incubator for 24 hours. Afterwards insets were removed and cells that had migrated through the membrane to the lower chamber were trypsinized and counted in a Neubauer chamber (LO-Laboroptik, Bad Homburg, Germany). Each well was counted ten times. Each migration or invasion experiment was performed in duplicate. The average number of migrated or invaded cells was determined for at least three independent experiments.
For WNT pathway analysis the following cells were applied: HCT116 cells (heterozygous for gain-of-function-mutated CTNNB1; wt/mut), HAB-68mut cells (deletion mutant of HCT116, expressing only gain-of-function-mutated CTNNB1: −/mut) and HAB-92 wt cells (deletion mutant of HCT116, expressing only wild-type CTNNB1: wt/−). (A) CTNNB1 genotype dependent effect of niclosamide on LEF/TCF transcription factor reporter gene expression. Cells were treated with 1 μM niclosamide for 24 hours. Reporter gene expression was determined by luciferase activity measurement. For each condition and cell line TOPflash expression was normalized to FOPflash expression. (B) CTNNB1 genotype dependent effect of niclosamide on S100A4 expression. Cells were treated with 1 μM niclosamide for 24 hours. S100A4 expression was analyzed by qRT-PCR and immunoblot. (C) CTNNB1 genotype dependent effect of niclosamide on migration rates. Cells were treated with 1 μM niclosamide for 24 hours and cell migration was determined by Boyden chamber assay. Data represents mean±SE of at least three independent experiments. Differences were analyzed by Student's t test (n.s.; not statistically significant). (D) Nuclear localization of CTNNB1 under niclosamide treatment. Nuclear extracts of HCT116 cells treated with the indicated concentrations of niclosamide for 18 hours were analyzed by immunoblot. (E) Effect of niclosamide on CTNNB1/TCF complex. Nuclear extracts of HCT116 cells treated with the indicated concentrations of niclosamide for 18 hours were analyzed by EMSA for the TCF-binding site of the S100A4 promoter. Supershift was performed by addition of a monoclonal anti-CTNNB1 antibody. […]

In the case of `O=C(Nc1ccc([N+](=O)[O-])cc1Cl)c1cc(Cl)ccc1O` [niclosamide, 2′,5-dichloro-4′-nitrosalicylanilide], the colony size [1] is reported as “clearly reduced”, the “number of colonies, mean difference control vs niclosamide” value [1] is reported as 100.7% and the “number of colonies, mean % of solvent-treated HCT116-vector cells” value ([1]; solvent control 105.8%) is reported as 5.0%. The colony size [2] was “clearly reduced”, the “number of colonies, mean % of solvent-treated HCT116-vector cells” value [2] was 6.8% and the “number of colonies, mean difference control vs niclosamide” value [2] was 93.2%. For the same molecule, the “migration rate, mean (relative to HCT116 control)” value ([3]; control 0.36) was 0.32 and the “migration rate, mean difference control vs niclosamide” value [3] was 0.04.
